The source of these data is ChEMBL document CHEMBL3351453 (2014).

Activity calls are given as the source filed them. The calls are words filed in the database; no cut-off is given here.

Assay [1] deals with BFTC-905. Conditions: Homo sapiens, at 20 to 80 µM.
Description: Cytotoxicity against human BFTC905 cells assessed as reduction in cell viability at 20 to 80 uM after 24 hrs by MTT assay
Assay [2] deals with RKO. Conditions: Homo sapiens, at 20 to 80 µM.
Description: Cytotoxicity against human RKO cells assessed as reduction in cell viability at 20 to 80 uM after 24 hrs by MTT assay
Assay [3] deals with A549. The experiment in a line: Cytotoxicity against human A549 cells assessed as cell viability at >40 uM after 24 hrs by MTT assay relative to gefitinib. It counts as functional.
The test system of assay [4] is A549. Description: Cytotoxicity against human A549 cells assessed as cell viability at 40 uM after 24 hrs by MTT assay (reference value: 100%). It counts as functional. The settings on record: A549, 24 h, read-out: Activity.
Assay [5] concerns A549. Description: Cytotoxicity against human A549 cells assessed as cell viability at 10 uM after 24 hrs by MTT assay (reference value: 100%). The settings on record: A549, 24 h, read-out: Activity. It counts as functional.
For assay [6], the system named is A549. The experiment in a line: Cytotoxicity against human A549 cells assessed as cell viability at 80 uM after 24 hrs by MTT assay (reference value: 100%). It counts as functional. Conditions: A549, 24 h, read-out: Activity.
In assay [7] the test system is A549. The experiment in a line: Cytotoxicity against human A549 cells assessed as cell viability at 20 uM after 24 hrs by MTT assay (reference value: 100%). It counts as functional. The settings on record: A549, 24 h, read-out: Activity.
The test system of assay [8] is A549. Description: Cytotoxicity against human A549 cells assessed as cell viability at 60 uM after 24 hrs by MTT assay (reference value: 100%). It counts as functional. The settings on record: A549, 24 h, read-out: Activity.

In the case of `COC(=O)CCC(=O)N1CCN(CCCOc2cc3c(Nc4ccc(F)c(Cl)c4)ncnc3cc2OC)CC1`, the inhibition result in assay [1] and in assay [2] was “Active” in each case.

Take `CCCCCCCCCCCOC(=O)CCC(=O)N1CCN(CCCOc2cc3c(Nc4ccc(F)c(Cl)c4)ncnc3cc2OC)CC1`: the Ratio in assay [3] is given as 15.

Regarding `CCCCCCCCCCOC(=O)CCC(=O)N1CCN(CCCOc2cc3c(Nc4ccc(F)c(Cl)c4)ncnc3cc2OC)CC1`, the Ratio in assay [3] is on record as 15.

In the case of `COc1cc2ncnc(Nc3ccc(F)c(Cl)c3)c2cc1OCCCN1CCOC(=O)C1`, the viability at 40 µM in assay [4] was 91%. Also, the viability at 10 µM in assay [5] stood at 96.1%. Besides, the viability at 80 µM in assay [6] is 94.9%. In assay [7], the viability at 20 µM is 93.1%. Besides, the viability at 60 µM in assay [8] was determined as 94.1%.

As to `CCCCCCCCCCCCOC(=O)CCC(=O)N1CCN(CCCOc2cc3c(Nc4ccc(F)c(Cl)c4)ncnc3cc2OC)CC1`, the Ratio in assay [3] worked out at 15.

On to `COc1cc2ncnc(Nc3ccc(F)c(Cl)c3)c2cc1OCCCN1CCN(C(=O)CCC(=O)O)CC1`, for which the inhibition entry in assay [1] and in assay [2] was “Active” throughout.
